What was measured:
[1] = biological target: T1, Flavin reductase (NADPH) (Homo sapiens) (UniProt P30043); assay: Binding affinity to human N-terminal His6-tagged and thrombin cleavage fused BLVRB expressed in Escherichia coli BL21 (DE3) assessed as change in enthalpy by isothermal titration calorimetry
T1 sequence (whole entry): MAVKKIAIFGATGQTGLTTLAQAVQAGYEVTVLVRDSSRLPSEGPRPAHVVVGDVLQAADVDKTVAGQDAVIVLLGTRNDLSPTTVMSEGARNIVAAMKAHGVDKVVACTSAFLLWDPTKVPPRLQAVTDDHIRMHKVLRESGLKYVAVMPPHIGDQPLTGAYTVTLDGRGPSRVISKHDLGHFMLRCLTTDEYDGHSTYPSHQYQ

[2] = biological target: T1, Flavin reductase (NADPH) (Homo sapiens); assay: Binding affinity to human N-terminal His6-tagged and thrombin cleavage fused BLVRB expressed in Escherichia coli BL21 (DE3) assessed as change in entropy by isothermal titration calorimetry
[3] = biological target: T1, Flavin reductase (NADPH) (Homo sapiens); assay: Binding affinity to human N-terminal His6-tagged and thrombin cleavage fused BLVRB expressed in Escherichia coli BL21 (DE3) assessed as change in gibbs free energy by isothermal titration calorimetry
Flavin reductase (NADPH) = biological target: T2, Flavin reductase (NADPH) (Homo sapiens, UniProt P30043); assay: Binding affinity to human N-terminal His6-tagged and thrombin cleavage fused BLVRB expressed in Escherichia coli BL21 (DE3) assessed as dissociation constant by isothermal titration calorimetry
T2 sequence (P30043 whole entry): T1 sequence (whole entry)

Row | SMILES | deltaH [1] [kJ/mol] | TdeltaS [2] [kJ/mol] | deltaG [3] [kJ/mol] | Kd (Flavin reductase (NADPH)) [µM]
1 | O=C1OC2(c3ccccc31)c1cc(I)c(O)c(I)c1Oc1c2cc(I)c(O)c1I [ERYTHROSINE] | -26.7 | 12.2 | -38.8 | 0.16
2 | O=C(O)c1c(Cl)c(Cl)c(Cl)c(Cl)c1-c1c2cc(Br)c(=O)c(Br)c-2oc2c(Br)c(O)c(Br)cc12 | -16.2 | 17.2 | -33.5 | 1.36
3 | O=C(O)c1ccc(-n2nc(-c3ccccc3O)nc2-c2ccccc2O)cc1 [DEFERASIROX] | -30.6 | 2.3 | -32.9 | 1.71
4 | CC1(C)CCC(C)(C)c2cc(NC(=O)c3ccc(C(=O)O)cc3)ccc21 | -18.8 | 14.6 | -33.4 | 

Continued, values first:

Row | deltaH [1] [kJ/mol] | TdeltaS [2] [kJ/mol] | deltaG [3] [kJ/mol] | Kd (Flavin reductase (NADPH)) [µM] | SMILES
5 | -39.5 | -3.18 | -36.3 |  | O=C(O)c1cc(/N=N/c2ccc(S(=O)(=O)Nc3ccccn3)cc2)ccc1O
6 | -45.9 | -7.66 | -38.2 | 0.2 | O=C(O)c1cccc(-c2noc(-c3ccccc3F)n2)c1
7 | -24.1 | 8.95 | -33.1 | 1.63 | Cc1nc(-c2ccc(OCC(C)C)c(C#N)c2)sc1C(=O)O [FEBUXOSTAT]
